Where two headings read alike, the source gives them in different places.
What was measured:
Assay in all cases: 72-hour CellTiter-Glo 2.0 growth inhibition screen (single agent, 9x9 combination dose matrix);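 for Best CI Level: inhibition effect level at which the best CI was calculated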
Format in all cases: cell-based
[1] = test system: Gp2D;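 for Best CI Level: inhibition effect level at which the best CI was calculated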
[2] = test system: Panc 04.03;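 for Best CI Level: inhibition effect level at which the best CI was calculated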
[3] = test system: HCC44;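 for Best CI Level: inhibition effect level at which the best CI was calculated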
[4] = test system: SW48;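 for Best CI Level: inhibition effect level at which the best CI was calculated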
[5] = test system: Calu-1; settings: Calu-1, Lung, 72 h
[6] = Gp2D (KRAS G12D), enhancer + MEI-522 (Voruciclib), 72 h;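 for Best CI Level: inhibition effect level at which the best CI was calculated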
[7] = Gp2D, Colorectal, Additional Single Agent Responses (inhibition, % I), 72 h
[8] = Gp2D, Colorectal, growth inhibition (GI) curve, single agent, 72 h
[9] = Gp2D, Colorectal, growth inhibition (GI), AUC, single agent, 72 h
[10] = enhancer combined with MEI-522 (Voruciclib), Gp2D (Colorectal), 72 hours, inhibition data
[11] = Panc 04.03 (KRAS G12D), enhancer + MEI-522 (Voruciclib), 72 h;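 for Best CI Level: inhibition effect level at which the best CI was calculated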
[12] = Panc 04.03, Pancreas, Additional Single Agent Responses (inhibition, % I), 72 h
[13] = Panc 04.03, Pancreas, growth inhibition (GI), AUC, single agent, 72 h
[14] = enhancer combined with MEI-522 (Voruciclib), Panc 04.03 (Pancreas), 72 hours, inhibition data
[15] = HCC44 (KRAS G12C), enhancer + MEI-522 (Voruciclib), 72 h;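 for Best CI Level: inhibition effect level at which the best CI was calculated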
[16] = HCC44, Lung, Additional Single Agent Responses (inhibition, % I), 72 h
[17] = HCC44, Lung, growth inhibition (GI), AUC, single agent, 72 h
[18] = enhancer combined with MEI-522 (Voruciclib), HCC44 (Lung), 72 hours, inhibition data
[19] = SW48 (KRAS WT), enhancer + MEI-522 (Voruciclib), 72 h;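 for Best CI Level: inhibition effect level at which the best CI was calculated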
[20] = SW48, Colorectal, Additional Single Agent Responses (inhibition, % I), 72 h
[21] = SW48, Colorectal, growth inhibition (GI), AUC, single agent, 72 h
[22] = enhancer combined with MEI-522 (Voruciclib), SW48 (Colorectal), 72 hours, inhibition data
[23] = Panc 04.03, Pancreas, growth inhibition (GI) curve, single agent, 72 h
[24] = HCC44, Lung, growth inhibition (GI) curve, single agent, 72 h
[25] = Additional Single Agent Responses (inhibition, % I)
[26] = growth inhibition (GI) curve, single agent
[27] = SW48, Colorectal, growth inhibition (GI) curve, single agent, 72 h

## CN1CCN(c2ccc(OC(F)(F)F)c(Nc3ncc4c(n3)-c3c(c(C(N)=O)nn3CCO)CC4)c2)CC1 [Onvansertib]
[1]; GP2d, 72 h, Colorectal, Additional Single Agent Responses (inhibition, % I)
  EC50: 0.0238 µM
[1]; GP2d, 72 h, Colorectal, growth inhibition (GI) curve, single agent
  EC50: 0.0339 µM
[1]; [6]
  Best CI: 0.96
  Bliss Volume: 7.51
  HSA volume: −1.36
  Loewe Volume: −1.41
  Synergy Score: 3.16
[1]; [7]
  IC50: 0.0255 µM
  Response Area: 4.29
[1]; Gp2D, Colorectal, Additional Single Agent Responses, 72 h, read-out: Max Response (% I)
  Emax: 93%
[1]; [8]
  GI50: 0.0224 µM
[1]; [9]
  Response Area: 7.46
[1]; Gp2D, Colorectal, growth inhibition (GI), single agent, 72 h, read-out: Max Response (% GI)
  Emax: 170%
[1]; [10]
  Best CI: 0.77
  Best CI Level: 20
  Bliss Volume: 0.17
  HSA volume: 0.25
  Loewe Volume: 0.05
  Synergy Score: 0.56
[2]; Homo sapiens, Panc 04.03, 72 h
  GI50: 0.0508 µM
[2]; Homo sapiens, Panc 04.03, 72 h, Panc 04.03, Pancreas, Additional Single Agent Responses (inhibition, % I), 72 h
  EC50: 0.0187 µM
[2]; Homo sapiens, Panc 04.03, 72 h, Panc 04.03, Pancreas, growth inhibition (GI) curve, single agent, 72 h
  EC50: 0.0192 µM
[2]; Homo sapiens, Panc 04.03, 72 h, read-out: Max Response (% GI)
  Emax: 70%
[2]; Homo sapiens, Panc 04.03, 72 h, read-out: Max Response (% I)
  Emax: 54%
[2]; [11]
  Best CI: 0.32
  Bliss Volume: 2.32
  HSA volume: 0.85
  Loewe Volume: 0.87
  Synergy Score: 1.99
[2]; [12]
  Response Area: 1.94
[2]; [13]
  Response Area: 2.60
[2]; [14]
  Best CI: 0.64
  Best CI Level: 20
  Bliss Volume: 0.17
  HSA volume: 0.61
  Loewe Volume: 0.89
  Synergy Score: 0.98
[3]; [15]
  Best CI: 0.65
  Bliss Volume: 4.26
  HSA volume: 1.33
  Loewe Volume: 0.16
  Synergy Score: 3.96
[3]; [16]
  Response Area: 3.83
[3]; [17]
  Response Area: 5.16
[3]; Homo sapiens, HCC44, 72 h, HCC44, Lung, Additional Single Agent Responses (inhibition, % I), 72 h
  EC50: 0.0185 µM
[3]; Homo sapiens, HCC44, 72 h, HCC44, Lung, growth inhibition (GI) curve, single agent, 72 h
  EC50: 0.022 µM
[3]; Homo sapiens, HCC44, Lung, Additional Single Agent Responses (inhibition, % I), 72 h
  IC50: 0.0253 µM
[3]; Homo sapiens, HCC44, Lung, Additional Single Agent Responses, 72 h, read-out: Max Response (% I)
  Emax: 81%
[3]; Homo sapiens, HCC44, Lung, growth inhibition (GI) curve, single agent, 72 h
  GI50: 0.0187 µM
[3]; Homo sapiens, HCC44, Lung, growth inhibition (GI), single agent, 72 h, read-out: Max Response (% GI)
  Emax: 112%
[3]; [18]
  Best CI: 0.80
  Bliss Volume: −0.85
  HSA volume: 0.68
  Loewe Volume: −0.34
  Synergy Score: 0.67
[3]; enhancer combined with MEI-522 (Voruciclib), HCC44 (Lung), 72 hours, inhibition data, unit assumed
  Best CI Level: 20%
[4]; Homo sapiens, SW48, 72 h, SW48, Colorectal, Additional Single Agent Responses (inhibition, % I), 72 h
  EC50: 0.0138 µM
[4]; Homo sapiens, SW48, 72 h, SW48, Colorectal, growth inhibition (GI) curve, single agent, 72 h
  EC50: 0.0154 µM
[4]; Homo sapiens, SW48, Colorectal, Additional Single Agent Responses (inhibition, % I), 72 h
  IC50: 0.0143 µM
[4]; Homo sapiens, SW48, Colorectal, Additional Single Agent Responses, 72 h, read-out: Max Response (% I)
  Emax: 95%
[4]; Homo sapiens, SW48, Colorectal, growth inhibition (GI) curve, single agent, 72 h
  GI50: 0.0134 µM
[4]; Homo sapiens, SW48, Colorectal, growth inhibition (GI), single agent, 72 h, read-out: Max Response (% GI)
  Emax: 177%
[4]; [19]
  Best CI: 0.72
  Bliss Volume: 6.27
  HSA volume: −3.43
  Loewe Volume: −1.93
  Synergy Score: 7.50
[4]; [20]
  Response Area: 4.36
[4]; [21]
  Response Area: 7.09
[4]; [22]
  Best CI: 0.76
  Bliss Volume: −0.78
  HSA volume: −0.51
  Loewe Volume: −0.74
  Synergy Score: 1.28
[4]; enhancer combined with MEI-522 (Voruciclib), SW48 (Colorectal), 72 hours, inhibition data, unit assumed
  Best CI Level: 20%

## CN1CC[C@@H](c2c(O)cc(O)c3c(=O)cc(-c4ccc(C(F)(F)F)cc4Cl)oc23)[C@@H]1CO [MEI-522(Voruciclib)]
[1]; [7]
  EC50: 0.747 µM
  IC50: 0.791 µM
  Response Area: 2.94
[1]; Gp2D, Colorectal, Additional Single Agent Responses, 72 h
  Max Response (% I): 94 % I
[1]; [8]
  EC50: 1.17 µM
  GI50: 0.695 µM
[1]; [9]
  Response Area: 5.14
[1]; Gp2D, Colorectal, growth inhibition (GI), single agent, 72 h
  Max Response (% GI): 176 % GI
[2]; [12]
  EC50: 1.31 µM
  IC50: 1.41 µM
  Response Area: 2.65
[2]; Panc 04.03, Pancreas, Additional Single Agent Responses, 72 h
  Max Response (% I): 92 % I
[2]; [23]
  EC50: 1.74 µM
  GI50: 1.3 µM
[2]; [13]
  Response Area: 4.67
[2]; Panc 04.03, Pancreas, growth inhibition (GI), single agent, 72 h
  Max Response (% GI): 168 % GI
[3]; [16]
  EC50: 0.77 µM
  IC50: 0.829 µM
  Response Area: 2.85
[3]; HCC44, Lung, Additional Single Agent Responses, 72 h
  Max Response (% I): 91 % I
[3]; [24]
  EC50: 1.21 µM
  GI50: 0.73 µM
[3]; [17]
  Response Area: 4.97
[3]; HCC44, Lung, growth inhibition (GI), single agent, 72 h
  Max Response (% GI): 161 % GI
[5]; [25]
  EC50: 1.86 µM
  IC50: 1.98 µM
  Response Area: 2.48
[5]; Additional Single Agent Responses
  Max Response (% I): 90 % I
[5]; [26]
  EC50: 2.07 µM
  GI50: 1.68 µM
[5]; growth inhibition (GI), AUC, single agent
  Response Area: 4.35
[5]; growth inhibition (GI), single agent
  Max Response (% GI): 159 % GI
[4]; [20]
  EC50: 0.443 µM
  IC50: 0.525 µM
  Response Area: 2.91
[4]; SW48, Colorectal, Additional Single Agent Responses, 72 h
  Max Response (% I): 87 % I
[4]; [27]
  EC50: 0.566 µM
  GI50: 0.422 µM
[4]; [21]
  Response Area: 4.44
[4]; SW48, Colorectal, growth inhibition (GI), single agent, 72 h
  Max Response (% GI): 135 % GI
